Results: patent publication US4605674A, “Substituted acetophenones and compositions containing them” (Hoffmann-La Roche Inc., priority 1979, dated 1986)
Values after ≈ are worked out from the molar mass of the structure shown. Like-named read-outs stand apart in the source and are kept apart here.

What was measured:
rhinovirus HGP = test: Inhibition of viral cytopathogenic effect (c.p.e.) of rhinovirus HGP in HeLa cells; type: cell-based, human rhinoviruses; details: Enterovirus, HeLa, 48 h, read-out: IC50 against rhinovirus HGP (concentration inhibiting the viral c.p.e. by 50%)
Experimental: A suspension of HeLa cells (6×10^4) was mixed with rhinovirus HGP (3×10^3 plaque forming units, PFU) and was plated in a microtest plate containing the compounds to be tested serially diluted. The cells were then cultured with Eagle's minimum essential medium containing 2% calf serum, 1% tryptose phosphate broth, 100 μg/ml of streptomycin sulfate and 20 unit/ml of penicillin G. Viral c.p.e. (cytopathogenic effect) was observed by a microscope after 2 days culture at 33° C.
The antiviral activity of the tested compounds is expressed by the concentration inhibiting the viral c.p.e. by 50% when compared to the control culture (IC50).

in vivo = details: mouse, DDY mice, single dose
Experimental: ^(1) DDY mice weighing 15-20 g were treated with a single dose of the
compound. Survivors were recorded on day 21.
^(2) Compounds were dissolved in dimethylsulfoxide.
^(3) Compounds were suspended with solution of 0.5% carboxymethyl

Coxsackievirus B1 = test: In vivo antiviral activity against lethal infection with Coxsackievirus B1 in mice; design: species or system DDY mice; details: up to 21 days
Experimental: The activity of the compounds against lethal infection with Coxsackievirus B1 was tested in mice. DDY mice weighing about 15 g were infected intraperitoneally with about the tenfold LD50 dose of the virus. The infected mice were treated 9 times with the compounds either orally 0, 2, 5, 18, 24, 42, 48, 66 and 72 hours or intraperitoneally 1, 2, 4, 18 and 28 hours after infection. The survivals were recorded up to 21 days.
Non-treated (controls) mice died at 3 to 5 days after infection.

HeLa cells = test: Cytotoxic symptoms in HeLa cells in the viral replication test; type: cell-based
Experimental: Effect of 2'-hydroxy-4,4',6'-trimethoxychalcone on the replication of rhinovirus HGP in HeLa cells was tested. Monolayers of HeLa cells (4×10^5) to which 2'-hydroxy-4,4',6'-trimethoxychelcone at various concentrations had been added were infected with rhinovirus HGP (4×10^4 PFU) for 60 minutes. Thereafter, the cells were washed with Eagle's minimum essential medium and further cultured with said medium containing 2% calf serum, 1% tryptose phosphate broth, 100 μg/ml of streptomycin sulfate and 20 units/ml of penicillin G. The total yield of the virus replicated in the culture medium was assayed 2 days after infection.
In the same manner the effect of 4'-ethoxy-2'-hydroxy-4,6'-dimethoxychalcone on the replication of rhinovirus type 21 in HeLa cells was tested.

[1] = ip, i.p., dissolved in dimethylsulfoxide, day 21, read-out: LD50 i.p.
[2] = po, p.o., suspended in 0.5% carboxymethyl cellulose, day 21, read-out: LD50 p.o.
[3] = 20 mg/kg × 9, p.o., control 20%
[4] = 40 mg/kg × 9, p.o., control 20%

SMILES	IC50 (rhinovirus HGP)	LD50 at 504 h (in vivo; [1])	LD50 at 504 h (in vivo; [2])	Survival (Coxsackievirus B1; 20 mg/kg × 5, i.p., control 0%)	Survival (Coxsackievirus B1; 40 mg/kg × 5, i.p., control 0%)	Survival (Coxsackievirus B1; [3])	Survival (Coxsackievirus B1; [4])	cytotoxic symptom (HeLa cells; 0.1-1.0 μg/ml, rhinovirus HGP test)	cytotoxic symptom (HeLa cells; 0.03 μg/ml, rhinovirus type 21 test)
CCC(=O)Oc1cc(OC)cc(OC)c1C(=O)/C=C/c1ccc(OC)cc1 [2',4,4'-trimethoxy-6'-(propionyloxy)chalcone]	0.01 µg/mL (≈ 0.027 µM)	> 500 mg/kg	> 5000 mg/kg	25%	75%				
COc1ccc(/C=C/C(=O)c2c(OC)cc(OC)cc2OC(C)=O)cc1 [2'-acetoxy-4,4',6'-trimethoxychalcone]	0.006 µg/mL (≈ 0.0168 µM)	> 1000 mg/kg	> 5000 mg/kg		50%	40%	70%		
COc1cc(O)c(C(=O)C=Cc2cccs2)c(OC)c1 [2'-hydroxy-4',6'-dimethoxy-3-(2-thienyl)-acrylophenone]	0.03 µg/mL (≈ 0.103 µM)	> 1000 mg/kg	> 5000 mg/kg			30%	70%		
COc1ccc(/C=C/C(=O)c2c(O)cc(OC)cc2OC)cc1 [2'-hydroxy-4,4',6'-trimethoxychalcone]	0.01 µg/mL (≈ 0.0318 µM)	> 1000 mg/kg	> 5000 mg/kg			40%	60%	without showing any cytotoxic symptom	
CCCOc1cc(OC)cc(O)c1C(=O)/C=C/c1ccc(OC)cc1 [2'-hydroxy-4,4'-dimethoxy-6'-propoxychalcone]	0.06 µg/mL (≈ 0.175 µM)	> 500 mg/kg	> 1500 mg/kg						
COc1ccc(/C=C/C(=O)c2ccc(OC)cc2O)cc1 [2'-hydroxy-4,4'-dimethoxychalcone]	0.3 to 1 µg/mL (≈ 1.06 to 3.52 µM)	> 1000 mg/kg	> 2500 mg/kg						
COc1ccc(/C=C/C(=O)c2c(O)cc(OC)cc2OC(C)C)cc1 [2'-hydroxy-6'-isopropoxy-4,4'-dimethoxychalcone]	0.1 to 0.2 µg/mL (≈ 0.292 to 0.584 µM)	> 500 mg/kg	> 2700 mg/kg						
CCC(=O)Oc1cc(OC)cc(OC(C)C)c1C(=O)/C=C/c1ccc(OC)cc1 [2'-isopropoxy-4,4'-dimethoxy-6'-(propionyloxy)chalcone]	0.01 to 0.03 µg/mL (≈ 0.0251 to 0.0753 µM)	> 500 mg/kg	> 1000 mg/kg						
COc1cc(O)c(C(=O)/C=C/c2cccc(OC)c2O)c(OC)c1 [2,2'-dihydroxy-3,4',6'-trimethoxychalcone]	0.15 to 0.5 µg/mL (≈ 0.454 to 1.51 µM)	> 500 mg/kg	> 1000 mg/kg						
CCC(=O)Oc1cc(OC)cc(OC)c1C(=O)C=Cc1ccco1 [3-(2-furyl)-2',4'-dimethoxy-6'-(propionyloxy)-acrylophenone]	0.1 to 0.3 µg/mL (≈ 0.303 to 0.908 µM)	> 500 mg/kg	> 1000 mg/kg						
COc1cc(O)c(C(=O)C=Cc2ccco2)c(OC)c1 [3-(2-furyl)-2'-hydroxy-4',6'-dimethoxyacrylophenone]	0.06 to 0.2 µg/mL (≈ 0.219 to 0.729 µM)	> 500 mg/kg	> 1500 mg/kg						
CCOc1cc(O)c(C(=O)/C=C/c2ccc(OC)cc2)c(OC)c1 [4'-ethoxy-2'-hydroxy-4,6'-dimethoxychalcone]	0.002 to 0.006 µg/mL (≈ 0.00609 to 0.0183 µM)	> 1000 mg/kg	> 5000 mg/kg						without showing any cytotoxic symptom
CCOc1cc(O)c(C(=O)C=Cc2ccc(C)o2)c(OC)c1 [4'-ethoxy-2'-hydroxy-6'-methoxy-3-(5-methyl-2-furyl)-acrylophenone]	0.03 µg/mL (≈ 0.0992 µM)	> 500 mg/kg	> 1000 mg/kg						
CCOc1ccc(/C=C/C(=O)c2c(O)cc(OCC)cc2OC)cc1 [4,4'-diethoxy-2'-hydroxy-6'-methoxychalcone]	0.006 to 0.02 µg/mL (≈ 0.0175 to 0.0584 µM)	> 500 mg/kg	> 1000 mg/kg						
CCCOc1cc(OC)cc(OC(=O)CC)c1C(=O)/C=C/c1ccc(OC)cc1 [4,4'-dimethoxy-2'-(propionyloxy)-6'-propoxychalcone]	0.03 to 0.1 µg/mL (≈ 0.0753 to 0.251 µM)	> 500 mg/kg	> 1000 mg/kg						
C=CCOc1ccc(/C=C/C(=O)c2c(OC)cc(OC)cc2OC(=O)CC)cc1 [4-(allyloxy)-2',4'-dimethoxy-6'-(propionyloxy)-chalcone]	0.03 to 0.1 µg/mL (≈ 0.0757 to 0.252 µM)	> 500 mg/kg	> 1000 mg/kg						
C=CCOc1ccc(/C=C/C(=O)c2c(O)cc(OC)cc2OC)cc1 [4-(allyloxy)-2'-hydroxy-4',6'-dimethoxychalcone]	0.03 to 0.1 µg/mL (≈ 0.0881 to 0.294 µM)	> 500 mg/kg	> 1000 mg/kg						
COc1cc(O)c(C(=O)/C=C/c2ccc(OCc3ccccc3)c(OC)c2)c(OC)c1 [4-(benzyloxy)-2'-hydroxy-3,4',6'-trimethoxychalcone]	1 µg/mL (≈ 2.38 µM)	> 500 mg/kg	> 1500 mg/kg						
CCC(=O)Oc1cc(OC)cc(OC)c1C(=O)/C=C/c1ccc(Cl)cc1 [4-chloro-2',4'-dimethoxy-6'-(propionyloxy)-chalcone]	0.1 to 0.3 µg/mL (≈ 0.267 to 0.8 µM)	> 1000 mg/kg	> 5000 mg/kg						
COc1cc(O)c(C(=O)/C=C/c2ccc(Cl)cc2)c(OC)c1 [4-chloro-2'-hydroxy-4',6'-dimethoxychalcone]	0.02 to 0.06 µg/mL (≈ 0.0627 to 0.188 µM)	> 1000 mg/kg	> 5000 mg/kg						
COc1cc(O)c(C(=O)/C=C/c2ccc(C#N)cc2)c(OC)c1 [4-cyano-2'-hydroxy-4',6'-dimethoxychalcone]	0.3 µg/mL (≈ 0.97 µM)	> 500 mg/kg	> 1000 mg/kg						
CCOc1ccc(/C=C/C(=O)c2c(OC)cc(OC)cc2OC(=O)CC)cc1 [4-ethoxy-2',4'-dimethoxy-6'-(propionyloxy)-chalcone]	0.03 to 0.1 µg/mL (≈ 0.078 to 0.26 µM)	> 1000 mg/kg	> 5000 mg/kg						
CCOc1ccc(/C=C/C(=O)c2c(O)cc(OC)cc2OC)cc1 [4-ethoxy-2'-hydroxy-4',6'-dimethoxychalcone]	0.02 to 0.05 µg/mL (≈ 0.0609 to 0.152 µM)	> 1000 mg/kg	> 5000 mg/kg						
